Data taken from patent US12427192B2, “Water soluble adjuvant and composition containing same” (Sumitomo Pharma Co., Ltd., priority 2019, dated 2025).

Molecular target: T1, mouse TLR7 (Mus musculus, UniProt P58681)
T1 construct: expresses full-length mouse TLR7 and secretory SEAP reporter gene; host or cells: HEK-Blue mTLR7 (HEK293-derived)
T1 sequence (P58681 27-1050): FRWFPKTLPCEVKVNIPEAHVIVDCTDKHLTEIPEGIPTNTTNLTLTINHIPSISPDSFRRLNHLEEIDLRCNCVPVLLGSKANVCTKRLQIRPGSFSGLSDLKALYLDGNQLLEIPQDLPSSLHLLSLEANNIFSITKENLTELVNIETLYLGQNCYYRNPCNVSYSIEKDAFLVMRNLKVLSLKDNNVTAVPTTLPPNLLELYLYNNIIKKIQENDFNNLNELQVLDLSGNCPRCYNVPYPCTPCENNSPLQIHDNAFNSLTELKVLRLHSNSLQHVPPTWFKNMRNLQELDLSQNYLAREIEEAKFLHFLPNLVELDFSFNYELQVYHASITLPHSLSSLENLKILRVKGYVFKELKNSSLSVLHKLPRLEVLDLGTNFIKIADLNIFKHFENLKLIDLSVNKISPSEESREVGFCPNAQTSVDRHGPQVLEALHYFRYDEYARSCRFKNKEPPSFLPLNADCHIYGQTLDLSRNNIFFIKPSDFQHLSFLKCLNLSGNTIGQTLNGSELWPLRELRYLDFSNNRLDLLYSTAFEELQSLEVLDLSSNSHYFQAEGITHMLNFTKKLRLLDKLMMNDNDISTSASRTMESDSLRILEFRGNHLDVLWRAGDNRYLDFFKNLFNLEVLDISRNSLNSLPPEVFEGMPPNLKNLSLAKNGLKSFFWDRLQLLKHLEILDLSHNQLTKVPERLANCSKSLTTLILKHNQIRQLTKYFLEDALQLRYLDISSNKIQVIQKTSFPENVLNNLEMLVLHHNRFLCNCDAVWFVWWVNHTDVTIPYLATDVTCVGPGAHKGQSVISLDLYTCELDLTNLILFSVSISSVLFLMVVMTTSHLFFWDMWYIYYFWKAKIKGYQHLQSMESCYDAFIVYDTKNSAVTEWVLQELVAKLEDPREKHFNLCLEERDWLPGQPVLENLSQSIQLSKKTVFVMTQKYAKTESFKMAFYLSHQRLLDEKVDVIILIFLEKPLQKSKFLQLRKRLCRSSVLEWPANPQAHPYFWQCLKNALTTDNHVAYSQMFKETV
Assay: Mouse TLR7 reporter gene assay (HEK-Blue mTLR7 cell line), Test 2
Type: cell-based
Details: half of maximal SEAP induction, 20-24-hour incubation, 0.1% DMSO
Excerpt: Test 2 Mouse TLR7 Reporter Gene Assay
HEK-Blue™ mTLR7 cell line (Invivogen) is a stably co-transfected cell line which expresses full-length mouse TLR7 and secretory SEAP reporter gene under the transcriptional regulation of an NF-κB response element. The TLR7 expression of the cell line has been already tested by RT-PCR. Transfectants with stable expression were selected using the antibiotic blasticidin and Zeocin. TLR signaling leads to the translocation of NF-κB and the activation of the promoter results in expression of the SEAP gene. TLR7-specific activation was assessed by determining the level of SEAP produced following 20-24-hour incubation of the cells at 37° C. with each compound prepared in Examples and Reference examples in the presence of 0.1% (v/v) DMSO. The mouse TLR7 activity for the present compound was assessed by mouse TLR7 reporter gene assay, and the results are shown in Tables 5 and 6 as the compound concentration which produced half of the maximal level of SEAP induction (EC50).

Row | EC50 [nM] | Structure (SMILES)
1 | 28 | CCCCCNc1nc(N)nc(C)c1Cc1ccc(CN(C)CCOCCOCCOCCOCCO)cc1OC [Example 1, 1-(4-{[2-amino-4-methyl-6-(pentylamino)pyrimidin-5-yl]methyl}-3-methoxyphenyl)-2-methyl-5,8,11,14-tetraoxa-2-azahexadecan-16-ol·trifluoroacetate]
2 | 15 | CCCCCNc1nc(N)nc(C)c1Cc1ccc(CNC)cc1OC [Reference example 12, 5-({2-methoxy-4-[(methylamino)methyl]phenyl}methyl)-6-methyl-N^4-pentylpyrimidine-2,4-diamine, reference compound]
